Assay: Accelerated light stability study (Atlas Suntest CPS+ light box)
Format: physicochemical
Experimental: Purity analysis was performed on an Agilent HP1100 system equipped with a diode array detector and using Chemstation V9 software. Gradient, Reverse Phase methods (duration approximately 40 minutes) were used in a HPLC1 system. A Thermo-Electron Corporation HyPurity C18 5 um 150×4.6 mm column was used at 25° C. Test samples were made-up of 0.2 mg/ml of the compound in acetonitrile:water (1:1 v/v). 10 μl of sample was injected into the column. The flow rate through the column was 1 ml/min and the detection wavelength, bandwidth was 254,8 nm. Phase A was 0.1% phosphoric acid in water and Phase B was 0.1% phosphoric acid in acetonitrile. The mobile phase timetable is shown below in Table 2.
Accelerated Light stability experiments were conducted using an Atlas Suntest CPS+light box. The light exposure was set to 550 W/m^2 and the run time was set to 168 hours (1 week). The chamber temperature and black standard temperature (which indicates how hot the test samples will become) were set to 25° C. The actual temperature in the sample chamber was 40° C.
Form I and II were assessed using an Atlas Suntest CPS+ light box to determine the effect of their exposure to light over a period of 168 hours (1 week). The light exposure was set to 550 W/M^2. Samples were weighed into either open weighing boats covered by pyrex glass beakers, glass vials with open tops (no lid), or glass vials covered in Aluminum foil. In all instances, the material was spread out into an even, thin layer.

Cc1cc2c(-c3ccccc3F)nc(N3CCNCC3)nc2s1.Cl [Form II, 4-(2-fluorophenyl)-6-methyl-2-(piperazin-1-yl)thieno[2,3-d]pyrimidine hydrochloride]
Rate of degradation relative to Form I (1 week at elevated light levels): about half the rate of Form I
Purity after 1 week light exposure (20 ml glass vial covered in Al foil with loose lid (control)): 99.9
Purity after 1 week light exposure (20 ml glass vial, 550 W/m^2, 168 hours, hydrochloride): 90.7
HPLC purity after accelerated light study (one week, FIGS. 6A/6B (open weighing boats), hydrochloride): 88.3%
Purity after 1 week light exposure (open weighing boat, 550 W/m^2, 168 hours, hydrochloride): 88.3

— patent publication US20070254891A1, “Crystalline forms of 4-(2-fluorophenyl)-6-methyl-2-(piperazin-1-yl)thieno[2,3-d]pyrimidine” (Dynogen Pharmaceuticals, Inc., priority 2006, published 2007)
